In ChEMBL document CHEMBL1201862, “PubChem BioAssay data set” (2004):
Activity calls are given as the source filed them.

Experiments:
[1] = microbe, parasite or virus in culture; format: functional; conditions: Mycobacterium tuberculosis
cells = format: functional
Cytochrome P450 2C9 = Cytochrome P450 2C9 (Homo sapiens, UniProt P11712)
[2] = THP-1 cell cytotoxicity, dose response, cytotoxicity control for non-replicating M. tuberculosis project (AID 489025); format: functional
Cytochrome P450 2D6 = Cytochrome P450 2D6 (Homo sapiens, UniProt P10635);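 note: CYP2D6 member of a cytochrome P450 panel assay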
Ephrin type-A receptor 4 = Ephrin type-A receptor 4 (Mus musculus, UniProt Q03137); assay: inhibitors of EphA4 binding to KYL peptide, primary screen, biochemical, colorimetric, mouse EphA4 (AID 689); format: functional
Estrogen receptor beta [3] = target: T1, Estrogen receptor beta (Homo sapiens, UniProt Q92731);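 note: recombinant ER-beta bound to coactivator SRC1 peptide in presence of estradiol agonist; inhibitors block coactivator peptide binding and lower the FRET signal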
[4] = target: Peroxisome proliferator-activated receptor gamma/Nuclear receptor coactivator 1 (Homo sapiens, UniProt P37231); assay: TR-FRET dose response biochemical High Throughput Screening assay for agonists of the steroid receptor coactivator 1 (SRC-1) recruitment by the peroxisome proliferator-activated receptor gamma (PPAR gamma): non-selective agonists. [Related pubchem assays (depositor defined):AID1300, AID1808, AID504735, AID631]; format: protein assay
Prothrombin = Prothrombin (Bos taurus, UniProt P00735); assay: thrombin inhibition, dose response, biochemical, fluorescence polarization, uHTS hits (AID 602369); format: functional
[5] = target: 72 kDa type IV collagenase (Homo sapiens, UniProt P08253); assay: Dose Response validation of uHTS RPN11 inhibitor hits using a MMP-2 Fluorescence assay.; format: functional
[6] = target: 26S proteasome non-ATPase regulatory subunit 14 (Homo sapiens, UniProt O00487); assay: inhibition of proteasome subunit RPN11 – biochemical, fluorescence polarization, uHTS hits, confirmation (AID 602368); format: functional
[7] = target: Peroxisome proliferator-activated receptor gamma/Nuclear receptor coactivator 2 (Homo sapiens, UniProt P37231); assay: TR-FRET dose response biochemical High Throughput Screening assay for agonists of the steroid receptor coactivator 2 (SRC-2) recruitment by the peroxisome proliferator-activated receptor gamma (PPAR gamma): non-selective agonists. [Related pubchem assays: 1297, 1032 ]; format: functional
Nonstructural protein 1 = Nonstructural protein 1 (Influenza A virus, UniProt Q194T2); format: functional, Influenza A virus (A/California/07/2009(H1N1))
[8] = target: Peroxisome proliferator-activated receptor gamma/Nuclear receptor coactivator 3 (Homo sapiens, UniProt P37231); assay: TR-FRET dose response biochemical High Throughput Screening assay for agonists of the steroid receptor coactivator 3 (SRC-3) recruitment by the peroxisome proliferator-activated receptor gamma (PPAR gamma): non-selective agonists. [Related pubchem assays: 1301 (Confirmation screen.), 1048 (Primary screen.)]; format: functional
[9] = target: T2, E3 ubiquitin-protein ligase XIAP (Homo sapiens, UniProt P98170); assay: XIAP antagonists, biochemical, IAP family, fluorescence polarization (AID 1018); format: functional
[10] = target: T2, E3 ubiquitin-protein ligase XIAP; assay: Counter Screen using XIAP-Bir3 for Chemical Antagonists of Bir1/2 domains of IAP-family anti-apoptotic proteins. [Related pubchem assays (depositor defined):AID1018, AID1449, AID1514, AID1638, AID1749, AID1750, AID488957, AID488963]
[11] = target: Sphingosine 1-phosphate receptor 2 (Homo sapiens, UniProt O95136); assay: Dose Response Cell Based Assay for Agonists of the S1P2 Receptor. [Related pubchem assays: 729, 736, 843 ]; format: functional
Estrogen receptor beta [12] = target: T1, Estrogen receptor beta; assay: ERβ–SRC-3 coactivator interaction inhibitors, confirmation, orthogonal assay, biochemical, ELISA, streptavidin-HRP readout (AID 1060)
[13] = target: T3, Low molecular weight phosphotyrosine protein phosphatase (Homo sapiens, UniProt P24666); format: functional; conditions: read-out: IC50_Mean;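 note: Dose-response confirmation assay measuring inhibition of LMPTP enzyme activity by fluorescence intensity read-out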
T3 sequence (P24666 whole entry): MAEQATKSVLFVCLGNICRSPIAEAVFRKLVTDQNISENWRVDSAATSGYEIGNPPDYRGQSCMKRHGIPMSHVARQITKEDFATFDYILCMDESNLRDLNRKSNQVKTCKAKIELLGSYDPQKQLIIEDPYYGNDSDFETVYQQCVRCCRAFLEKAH

[14] = target: T4, Tyrosine-protein phosphatase non-receptor type 7 (Homo sapiens, UniProt P35236); assay: inhibitors of human HePTP phosphatase, […], biochemical, absorbance, leukemia target (AID 521); format: functional
T4 sequence (P35236 whole entry): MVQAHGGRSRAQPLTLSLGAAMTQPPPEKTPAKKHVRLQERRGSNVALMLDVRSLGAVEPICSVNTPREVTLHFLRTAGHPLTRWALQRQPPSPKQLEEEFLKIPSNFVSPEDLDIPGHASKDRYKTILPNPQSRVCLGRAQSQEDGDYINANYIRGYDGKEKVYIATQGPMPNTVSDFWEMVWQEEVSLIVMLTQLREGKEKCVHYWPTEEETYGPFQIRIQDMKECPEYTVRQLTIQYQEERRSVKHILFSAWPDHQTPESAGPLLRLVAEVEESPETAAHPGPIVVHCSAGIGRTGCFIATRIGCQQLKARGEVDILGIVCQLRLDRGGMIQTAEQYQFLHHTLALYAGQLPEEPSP

CHO = assay: cytotoxicity in TLR9-MyD88 CHO cells, dose response, cytotoxicity control for TLR9-MyD88 binding inhibitor project, cell-based, luminescence (AID 588339); format: functional, hamster; conditions: Cricetulus griseus;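 note: CHO cells stably coexpressing TLR9 and MyD88 fusions from primary screen; compound exposure lasted 48 hours before viability readout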
[15] = inhibitors of Vif binding to APOBEC3G peptide, primary screen, biochemical, TR-FRET, GST-Vif 1-94, biotin-A3G peptide, dose response retest (AID 1117319); format: functional;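 note: TR-FRET signal of purified GST-Vif binding a biotinylated A3G peptide; inhibitors lower the FRET signal by blocking Vif and A3G binding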
[16] = target: Glucose-6-phosphate 1-dehydrogenase (Homo sapiens, UniProt P11413); assay: human G6PD enzyme inhibitors, dose response, selectivity assay for P. falciparum G6PD inhibitor project, biochemical, fluorescence (AID 504792); format: functional
[17] = control 3'UTR Renilla luciferase suppression, dose response, counter-screen for Shn3 inhibitor project, cell-based, Clone20-Shn3RL, cherry-picked (AID 624133); format: functional
[18] = Shn3 3'UTR reporter inhibitors, dose response, cell-based, Clone20 osteoblasts, firefly luciferase, cherry-picked (AID 624132); format: functional;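 note: firefly luciferase luminescence from reporter carrying the Shn3 3'UTR in osteoblasts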
Beta Lactamase = Beta Lactamase (Pseudomonas aeruginosa, UniProt Q932Y6); assay: beta-lactamase reporter inhibitor potency, dose response, artefact control for TLR9-MyD88 binding inhibitor project, BLA reporter cells, FRET fluorescence (AID 588341); format: cell-based;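 note: cell based assay in CHO-K1 cells stably expressing beta-lactamase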
[19] = target: T5, Rac GTPase-activating protein 1 (Homo sapiens, UniProt Q9H0H5); assay: MgcRacGAP GTPase-activating activity inhibitors, confirmation, biochemical, ADP Hunter fluorescence, primary and confirmatory (AID 624330); format: functional
T5 sequence (Q9H0H5 whole entry): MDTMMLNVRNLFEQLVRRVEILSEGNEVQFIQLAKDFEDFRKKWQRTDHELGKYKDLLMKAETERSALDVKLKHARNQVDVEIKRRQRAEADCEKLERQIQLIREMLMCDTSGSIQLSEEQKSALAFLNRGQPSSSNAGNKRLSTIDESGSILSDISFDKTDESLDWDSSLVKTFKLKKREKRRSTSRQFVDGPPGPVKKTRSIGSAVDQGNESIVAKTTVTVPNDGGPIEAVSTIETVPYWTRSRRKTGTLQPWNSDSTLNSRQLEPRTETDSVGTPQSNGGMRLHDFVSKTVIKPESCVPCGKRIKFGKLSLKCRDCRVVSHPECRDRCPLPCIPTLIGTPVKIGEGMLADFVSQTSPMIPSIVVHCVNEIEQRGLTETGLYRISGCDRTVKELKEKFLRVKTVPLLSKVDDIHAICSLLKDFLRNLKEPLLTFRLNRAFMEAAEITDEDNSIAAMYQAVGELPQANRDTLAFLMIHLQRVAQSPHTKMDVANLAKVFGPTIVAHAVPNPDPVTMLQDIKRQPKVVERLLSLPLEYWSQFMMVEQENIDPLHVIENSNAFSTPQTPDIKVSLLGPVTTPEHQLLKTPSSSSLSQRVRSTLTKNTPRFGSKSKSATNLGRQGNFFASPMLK

[20] = HepG2 cell cytotoxicity, dose response, cytotoxicity control for Shn3 inhibitor project, CellTiter-Glo, cherry-picked (AID 624134); format: functional, cell-based
[21] = target: T6, Corticotropin-releasing factor receptor 2/Corticotropin-releasing factor-binding protein (Homo sapiens, UniProt P24387+Q13324); assay: Dose Response confirmation of uHTS hits for small molecule antagonists of the CRF-binding protein and CRF-R2 receptor complex.; format: functional; conditions: read-out: IC50_Mean
T6 sequence (Q13324 whole entry): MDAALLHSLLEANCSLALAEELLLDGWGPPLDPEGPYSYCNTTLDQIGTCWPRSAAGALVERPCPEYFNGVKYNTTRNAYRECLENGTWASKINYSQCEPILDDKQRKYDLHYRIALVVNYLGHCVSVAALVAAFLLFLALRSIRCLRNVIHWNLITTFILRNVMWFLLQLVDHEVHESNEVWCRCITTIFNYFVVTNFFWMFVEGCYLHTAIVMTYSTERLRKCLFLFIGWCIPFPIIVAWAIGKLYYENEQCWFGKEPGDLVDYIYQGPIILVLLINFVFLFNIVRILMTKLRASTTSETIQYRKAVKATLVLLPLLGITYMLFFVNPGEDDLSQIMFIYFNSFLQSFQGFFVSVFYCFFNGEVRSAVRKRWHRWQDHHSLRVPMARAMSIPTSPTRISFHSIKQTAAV
T6 sequence (P24387 whole entry): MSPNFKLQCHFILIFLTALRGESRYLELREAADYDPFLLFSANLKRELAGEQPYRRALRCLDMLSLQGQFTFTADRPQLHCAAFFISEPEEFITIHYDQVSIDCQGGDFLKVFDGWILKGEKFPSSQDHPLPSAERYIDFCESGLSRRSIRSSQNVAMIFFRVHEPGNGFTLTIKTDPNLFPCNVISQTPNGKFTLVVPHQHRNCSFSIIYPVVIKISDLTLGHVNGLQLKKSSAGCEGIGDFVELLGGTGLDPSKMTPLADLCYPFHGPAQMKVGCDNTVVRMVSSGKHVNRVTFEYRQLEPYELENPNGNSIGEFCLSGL

[22] = target: T6, Corticotropin-releasing factor receptor 2/Corticotropin-releasing factor-binding protein; assay: activators of CRF receptor 2 with binding protein – uHTS hits, confirmation (AID 602473); format: functional; conditions: read-out: EC50_Mean
[23] = cytotoxicity in KRAS-transformed pancreatic duct cells, primary screen, cell-based, fluorescence, HTS (AID 431); format: functional; conditions: Homo sapiens;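 note: cell line used: HPDE-C7K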
[24] = target: Neurotensin receptor type 1 (Homo sapiens, UniProt P30989); format: functional;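 note: Image-based confirmatory dose-response assay measuring agonist activity at NTR1; NTR1-expressing U2OS osteosarcoma cells imaged for beta-arrestin GFP spot formation; agonist potency where compounds increase beta-arrestin recruitment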
[25] = cytotoxicity in HPDE-C7 cells, cell-based, fluorescence, HTS (AID 430); format: functional; conditions: Homo sapiens
[26] = inhibitors of intracellular T. cruzi replication, confirmation, NIH3T3 host cells, beta-gal luminescence (AID 2044); format: functional, cell-based;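 note: intracellular parasites grown in NIH/3T3 mouse fibroblasts as host cells; luminescent beta-galactosidase reporter signal from transgenic T. cruzi replicating inside host cells; inhibitors lower the luminescence signal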
Vero = assay: cells; format: functional; conditions: Chlorocebus sabaeus
[27] = cytotoxicity toward NIH3T3 fibroblasts, dose response, counter-screen, cell-based, ATP luminescence, mouse fibroblasts (AID 2010); format: functional;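 note: cells exposed to compound for about 90 hours before reading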

T1 sequence (Q92731 whole entry): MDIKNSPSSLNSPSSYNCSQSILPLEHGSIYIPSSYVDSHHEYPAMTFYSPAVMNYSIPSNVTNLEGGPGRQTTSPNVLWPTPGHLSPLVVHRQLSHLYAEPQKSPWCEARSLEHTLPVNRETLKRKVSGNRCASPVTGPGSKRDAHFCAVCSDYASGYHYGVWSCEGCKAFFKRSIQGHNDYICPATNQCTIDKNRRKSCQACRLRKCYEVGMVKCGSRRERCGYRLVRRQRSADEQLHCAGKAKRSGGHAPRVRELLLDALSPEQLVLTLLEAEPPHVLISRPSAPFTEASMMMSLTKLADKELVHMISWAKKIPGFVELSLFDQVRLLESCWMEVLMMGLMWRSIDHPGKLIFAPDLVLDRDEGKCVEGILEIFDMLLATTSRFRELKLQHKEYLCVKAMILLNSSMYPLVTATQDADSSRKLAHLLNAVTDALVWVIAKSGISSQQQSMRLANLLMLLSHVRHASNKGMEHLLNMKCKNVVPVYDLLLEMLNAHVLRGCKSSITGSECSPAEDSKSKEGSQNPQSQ
T2 sequence (P98170 whole entry): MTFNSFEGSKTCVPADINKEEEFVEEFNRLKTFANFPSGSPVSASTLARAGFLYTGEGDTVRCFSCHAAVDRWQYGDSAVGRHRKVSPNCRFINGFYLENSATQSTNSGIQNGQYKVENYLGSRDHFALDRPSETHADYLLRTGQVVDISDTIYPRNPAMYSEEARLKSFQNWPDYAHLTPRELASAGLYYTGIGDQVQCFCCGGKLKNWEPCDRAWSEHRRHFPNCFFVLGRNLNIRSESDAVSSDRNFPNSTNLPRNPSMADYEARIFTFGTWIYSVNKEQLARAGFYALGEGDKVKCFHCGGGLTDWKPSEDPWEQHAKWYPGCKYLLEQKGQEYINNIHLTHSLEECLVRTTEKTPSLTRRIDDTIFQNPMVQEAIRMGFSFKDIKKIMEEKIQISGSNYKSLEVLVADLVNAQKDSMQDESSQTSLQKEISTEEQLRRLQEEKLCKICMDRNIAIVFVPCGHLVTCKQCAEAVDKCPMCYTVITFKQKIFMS
Ephrin type-A receptor 4, sequence (Q03137 whole entry): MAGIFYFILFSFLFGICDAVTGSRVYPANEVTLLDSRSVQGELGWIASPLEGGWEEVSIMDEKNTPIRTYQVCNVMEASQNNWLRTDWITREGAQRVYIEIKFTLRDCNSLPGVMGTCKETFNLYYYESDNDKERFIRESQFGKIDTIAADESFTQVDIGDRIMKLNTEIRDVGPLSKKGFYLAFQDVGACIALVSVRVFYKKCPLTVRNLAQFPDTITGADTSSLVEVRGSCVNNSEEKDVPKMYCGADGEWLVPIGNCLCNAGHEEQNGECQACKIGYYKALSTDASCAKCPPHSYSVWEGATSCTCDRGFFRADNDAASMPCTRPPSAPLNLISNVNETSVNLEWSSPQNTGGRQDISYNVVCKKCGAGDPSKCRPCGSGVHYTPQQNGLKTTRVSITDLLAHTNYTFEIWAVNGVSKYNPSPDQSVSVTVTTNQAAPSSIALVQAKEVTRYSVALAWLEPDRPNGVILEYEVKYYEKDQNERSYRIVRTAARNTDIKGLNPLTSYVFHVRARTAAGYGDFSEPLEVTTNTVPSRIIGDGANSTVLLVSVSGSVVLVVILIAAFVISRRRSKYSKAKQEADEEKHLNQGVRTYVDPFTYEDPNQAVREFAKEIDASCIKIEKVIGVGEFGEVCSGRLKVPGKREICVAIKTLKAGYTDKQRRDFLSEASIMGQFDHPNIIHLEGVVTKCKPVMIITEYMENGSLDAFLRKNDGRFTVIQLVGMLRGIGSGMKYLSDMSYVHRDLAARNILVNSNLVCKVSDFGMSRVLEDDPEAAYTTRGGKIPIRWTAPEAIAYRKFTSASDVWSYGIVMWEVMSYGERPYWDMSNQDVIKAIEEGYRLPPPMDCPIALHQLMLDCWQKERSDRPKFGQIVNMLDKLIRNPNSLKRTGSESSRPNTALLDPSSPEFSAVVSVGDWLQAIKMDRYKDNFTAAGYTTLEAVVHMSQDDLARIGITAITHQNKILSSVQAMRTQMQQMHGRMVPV
Glucose-6-phosphate 1-dehydrogenase, sequence (P11413 whole entry): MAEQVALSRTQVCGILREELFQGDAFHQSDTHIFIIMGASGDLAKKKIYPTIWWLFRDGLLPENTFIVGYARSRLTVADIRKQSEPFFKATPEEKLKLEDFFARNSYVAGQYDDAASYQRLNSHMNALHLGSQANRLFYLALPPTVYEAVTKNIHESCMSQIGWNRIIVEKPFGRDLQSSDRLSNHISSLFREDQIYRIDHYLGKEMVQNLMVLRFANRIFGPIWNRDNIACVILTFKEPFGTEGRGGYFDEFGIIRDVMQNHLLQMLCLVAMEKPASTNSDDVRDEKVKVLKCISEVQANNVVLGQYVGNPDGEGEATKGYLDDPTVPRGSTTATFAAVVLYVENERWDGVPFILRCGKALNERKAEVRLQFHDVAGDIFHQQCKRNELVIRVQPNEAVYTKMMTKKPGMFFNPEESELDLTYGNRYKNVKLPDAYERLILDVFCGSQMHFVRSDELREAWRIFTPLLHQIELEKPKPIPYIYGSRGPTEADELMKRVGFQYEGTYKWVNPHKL
72 kDa type IV collagenase, sequence (P08253 whole entry): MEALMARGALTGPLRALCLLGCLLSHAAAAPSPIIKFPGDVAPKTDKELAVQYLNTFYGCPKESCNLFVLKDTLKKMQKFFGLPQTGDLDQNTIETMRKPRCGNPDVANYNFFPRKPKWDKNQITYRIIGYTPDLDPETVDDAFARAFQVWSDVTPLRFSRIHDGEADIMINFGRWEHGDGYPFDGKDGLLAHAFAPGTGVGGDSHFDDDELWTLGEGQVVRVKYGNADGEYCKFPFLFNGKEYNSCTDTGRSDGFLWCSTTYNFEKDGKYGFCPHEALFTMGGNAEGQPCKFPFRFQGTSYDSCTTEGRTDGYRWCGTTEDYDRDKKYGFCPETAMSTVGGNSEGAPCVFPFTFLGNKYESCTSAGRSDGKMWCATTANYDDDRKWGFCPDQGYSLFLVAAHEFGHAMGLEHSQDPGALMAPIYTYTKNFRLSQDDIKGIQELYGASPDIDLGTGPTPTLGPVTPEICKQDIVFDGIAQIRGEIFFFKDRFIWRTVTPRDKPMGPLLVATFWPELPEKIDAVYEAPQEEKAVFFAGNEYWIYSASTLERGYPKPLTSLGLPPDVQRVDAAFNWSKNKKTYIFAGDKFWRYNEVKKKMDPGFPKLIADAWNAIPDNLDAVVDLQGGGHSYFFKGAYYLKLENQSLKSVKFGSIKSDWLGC
26S proteasome non-ATPase regulatory subunit 14, sequence (O00487 whole entry): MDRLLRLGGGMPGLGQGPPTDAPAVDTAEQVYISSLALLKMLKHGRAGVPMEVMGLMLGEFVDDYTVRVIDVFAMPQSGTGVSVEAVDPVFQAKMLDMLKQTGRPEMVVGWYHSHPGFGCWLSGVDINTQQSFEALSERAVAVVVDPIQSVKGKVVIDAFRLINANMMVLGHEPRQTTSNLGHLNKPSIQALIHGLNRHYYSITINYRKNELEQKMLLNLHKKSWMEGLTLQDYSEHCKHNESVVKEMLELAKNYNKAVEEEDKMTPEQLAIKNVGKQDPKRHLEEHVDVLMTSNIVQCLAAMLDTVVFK
Nonstructural protein 1, sequence (Q194T2 whole entry): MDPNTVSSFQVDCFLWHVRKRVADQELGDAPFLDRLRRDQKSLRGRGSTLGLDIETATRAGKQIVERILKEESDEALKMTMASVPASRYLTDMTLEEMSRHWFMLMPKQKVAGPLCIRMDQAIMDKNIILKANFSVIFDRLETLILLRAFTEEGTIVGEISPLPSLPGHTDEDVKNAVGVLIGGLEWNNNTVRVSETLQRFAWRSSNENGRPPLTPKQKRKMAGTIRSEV
Sphingosine 1-phosphate receptor 2, sequence (O95136 whole entry): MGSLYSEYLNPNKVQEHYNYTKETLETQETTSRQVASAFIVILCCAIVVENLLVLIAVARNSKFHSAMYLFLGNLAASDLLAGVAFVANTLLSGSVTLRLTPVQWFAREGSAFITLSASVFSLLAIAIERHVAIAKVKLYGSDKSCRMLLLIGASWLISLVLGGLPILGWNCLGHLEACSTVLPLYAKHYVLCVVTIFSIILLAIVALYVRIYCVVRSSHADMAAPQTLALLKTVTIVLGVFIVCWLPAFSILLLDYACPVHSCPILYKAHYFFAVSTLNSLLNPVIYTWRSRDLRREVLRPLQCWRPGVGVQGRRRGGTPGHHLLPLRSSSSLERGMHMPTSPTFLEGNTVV
Beta Lactamase, sequence (Q932Y6 whole entry): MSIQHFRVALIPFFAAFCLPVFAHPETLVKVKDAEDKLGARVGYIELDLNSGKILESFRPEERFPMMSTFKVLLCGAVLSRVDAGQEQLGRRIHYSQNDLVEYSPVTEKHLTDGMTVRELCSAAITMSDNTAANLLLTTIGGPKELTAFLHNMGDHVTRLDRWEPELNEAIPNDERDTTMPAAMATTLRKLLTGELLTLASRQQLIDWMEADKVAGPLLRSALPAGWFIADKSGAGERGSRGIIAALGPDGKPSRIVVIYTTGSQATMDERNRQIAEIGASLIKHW
Neurotensin receptor type 1, sequence (P30989 whole entry): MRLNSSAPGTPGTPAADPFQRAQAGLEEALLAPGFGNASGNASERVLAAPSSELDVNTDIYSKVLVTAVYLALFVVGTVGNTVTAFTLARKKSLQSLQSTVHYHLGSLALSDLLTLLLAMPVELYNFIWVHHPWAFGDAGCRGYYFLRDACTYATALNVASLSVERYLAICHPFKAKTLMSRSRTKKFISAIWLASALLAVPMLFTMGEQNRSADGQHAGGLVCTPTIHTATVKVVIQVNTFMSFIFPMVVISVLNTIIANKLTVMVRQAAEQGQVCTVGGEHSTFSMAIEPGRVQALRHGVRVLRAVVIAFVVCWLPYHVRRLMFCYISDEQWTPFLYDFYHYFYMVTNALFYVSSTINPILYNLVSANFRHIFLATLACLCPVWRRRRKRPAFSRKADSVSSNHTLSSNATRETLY

## CCCCCCOC(=O)C(C#N)c1nc2ccccc2nc1N1CCN(CC)CC1 (centres undefined)
[1]
  CC50: 19.7 µM (active)
cells
  IC50: 13.6 µM (active)
Cytochrome P450 2C9
  AC50: 7.94 µM (inconclusive)
[2]
  CC50: 24.7 µM (active)
Cytochrome P450 2D6
  AC50: 25.1 µM (inconclusive)
Ephrin type-A receptor 4
  IC50: > 100 µM (not active)

## C[C@]12CCC(=O)C=C1CCC1C2CC[C@@]2(C)C1CC[C@@]2(O)CC#N (some centres undefined)
Estrogen receptor beta [3]
  IC50: > 50 µM (not active)

## CN(C)c1ccc(/C=C/C=C2/SC(=S)N(c3ccccc3)C2=O)cc1
[4]
  EC50: > 79.4 µM (inactive)
Prothrombin
  IC50: 0.529 µM (active)
[5]
  IC50: > 100 µM (inactive)
[6]
  IC50: 0.703 µM (active)
[7]
  EC50: > 79.4 µM (not active)
Nonstructural protein 1
  IC50: 5.48 µM (active)
[8]
  EC50: > 79.4 µM (not active)
Ephrin type-A receptor 4
  IC50: 0.6 µM (active)

## Cc1sc2nc(CN(C(=O)NC3CCCCC3)C3CCCCC3)nc(O)c2c1C
[9]
  IC50: > 100 µM (not active)
[10]
  IC50: > 100 µM (inactive)

## c1ccc(-c2nc3ccccn3c2NCc2ccc3c(c2)OCO3)cc1
[11]
  EC50: > 50 µM (not active)

## CCc1nc2sc3ccccc3c(=O)c2c(=O)n1Cc1ccco1
Estrogen receptor beta [12]
  IC50: 12.6 µM (not active)
Estrogen receptor beta [3]
  IC50: 6.59 µM (active)
[13]
  IC50: 52.2 µM (inactive)
[14]
  IC50: 15.1 µM (active)

## COc1cc(N2C(=O)C=CC2=O)ccc1N1C(=O)C=CC1=O
CHO
  IC50: 1.59 µM (active)
[15]
  IC50: > 100 µM (active)
[16]
  IC50: 57.4 µM (inactive)
[17]
  AC50: 12.5 µM (active)
[18]
  AC50: 2.32 µM (active)
Beta Lactamase
  IC50: 11 µM (inactive)
[19]
  IC50: 53.8 µM (active)
[20]
  AC50: 15.8 µM (active)

## COc1ccc(Cl)cc1NC(=O)CNc1ccccc1F
[9]
  IC50: > 100 µM (not active)
[21]
  IC50: > 47.1 µM (inactive)
[10]
  IC50: > 100 µM (inactive)
[22]
  EC50: > 53 µM (inactive)

## O=C(Nc1ccc(N2CCN(C(=O)c3ccco3)CC2)c(Cl)c1)c1cc2ccccc2o1
[23]
  EC50: 16.2 µM (active)
[24]
  EC50: 6 µM (active)
[25]
  EC50: 17.5 µM (active)
[26]
  EC50: 2.3 µM (active)
[16]
  IC50: > 80 µM (inactive)
[17]
  AC50: 17.6 µM (active)
[18]
  AC50: 5 µM (active)
Vero
  CC50: 11.2 µM (active)
[27]
  EC50: 8.95 µM (active)
[20]
  AC50: 7.49 µM (active)
